Several values for one entry are separate records, joined by “and”; a condition that tells them apart may be missing. Identical values can stand only once. Like-named read-outs stand apart in the source and are kept apart here.
Key:
[1] = test system: recombinant TEAD1 protein (194-411, Uniprot ID: P28347); assay: Thermal shift assay (protein melting point curve), TEAD1; type: binding; parameters: key to the marks not given beside the values; conditions: 10 μM TEAD protein, 50 μM test compound
Method: (§1) The ability of the compounds to increase the melting point of purified recombinant TEAD1/2/3/4 proteins is tested using a thermal shift assay. The strength of the compound's binding to the protein and the selectivity of the compound's binding to the four TEAD subtypes are evaluated by calculating the melting point shift ΔTm−° C. […] Based on the Δ Tm value, the ability of the compound to bind to the TEAD protein is divided into four levels: ++++, +++, ++, +.
(§2) Test method of protein melting point curve: 10 μL of the protein melting point curve experimental system (10 μM TEAD protein, 50 μM test compound, SYPRO® orange (55692, sigma)) is prepared in a 384-well fluorescence quantitative PCR plate according to the following system, and reacted at 4° C. in the dark for 20 minutes. On-machine reaction: ABI QuantStudio Dx fluorescence quantitative PCR instrument; program: from 25° C. to 80° C., increasing the temperature at a rate of 0.05° C./s, and reading the fluorescence channel signal of the corresponding wavelength of SYPRO® orange every second.

[2] = biological target: recombinant TEAD2 protein (218-447, Uniprot ID: Q15562) (Homo sapiens (Human), UniProt Q15562); assay: Thermal shift assay (protein melting point curve), TEAD2; type: binding; conditions: 10 μM TEAD protein, 50 μM test compound
Sequence of recombinant TEAD2 protein (218-447, Uniprot ID: Q15562) (Q15562 218-447): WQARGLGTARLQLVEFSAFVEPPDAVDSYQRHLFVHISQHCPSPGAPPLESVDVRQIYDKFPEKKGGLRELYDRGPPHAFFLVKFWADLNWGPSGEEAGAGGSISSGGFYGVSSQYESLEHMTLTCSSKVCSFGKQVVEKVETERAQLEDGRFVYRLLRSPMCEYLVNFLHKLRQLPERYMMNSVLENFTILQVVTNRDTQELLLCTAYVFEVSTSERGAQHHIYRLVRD
Method: as §1, §2

[3] = biological target: recombinant TEAD3 protein (218-435, Uniprot ID: Q99594) (Homo sapiens (Human), UniProt Q99594); assay: Thermal shift assay (protein melting point curve), TEAD3; type: binding; conditions: 10 μM TEAD protein, 50 μM test compound
Sequence of recombinant TEAD3 protein (218-435, Uniprot ID: Q99594) (Q99594 218-435): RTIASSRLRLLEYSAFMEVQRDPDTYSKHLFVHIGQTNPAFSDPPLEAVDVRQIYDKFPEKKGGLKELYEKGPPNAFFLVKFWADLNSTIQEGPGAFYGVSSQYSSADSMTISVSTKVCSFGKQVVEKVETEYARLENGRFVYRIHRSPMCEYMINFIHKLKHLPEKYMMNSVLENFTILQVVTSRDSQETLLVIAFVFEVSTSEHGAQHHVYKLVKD
Method: as §1, §2

[4] = biological target: recombinant TEAD4 protein (217-434, Uniprot ID: Q15561) (Homo sapiens (Human), UniProt Q15561); assay: Thermal shift assay (protein melting point curve), TEAD4; type: binding; conditions: 10 μM TEAD protein, 50 μM test compound
Sequence of recombinant TEAD4 protein (217-434, Uniprot ID: Q15561) (Q15561 217-434): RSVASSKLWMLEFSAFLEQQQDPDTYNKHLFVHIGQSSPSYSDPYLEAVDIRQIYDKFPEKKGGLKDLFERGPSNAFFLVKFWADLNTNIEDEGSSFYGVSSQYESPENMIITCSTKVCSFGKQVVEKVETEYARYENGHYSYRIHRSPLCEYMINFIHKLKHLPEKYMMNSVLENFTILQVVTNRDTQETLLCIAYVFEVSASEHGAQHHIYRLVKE
Method: as §1, §2

[5] = biological target: recombinant TEAD1 protein central pocket (Homo sapiens (Human), UniProt P28347); assay: Competitive thiol binding assay (CPM assay), TEAD1; conditions: 150 nM recombinant TEAD protein, 150 nM CPM
Sequence of recombinant TEAD1 protein central pocket (P28347 whole entry): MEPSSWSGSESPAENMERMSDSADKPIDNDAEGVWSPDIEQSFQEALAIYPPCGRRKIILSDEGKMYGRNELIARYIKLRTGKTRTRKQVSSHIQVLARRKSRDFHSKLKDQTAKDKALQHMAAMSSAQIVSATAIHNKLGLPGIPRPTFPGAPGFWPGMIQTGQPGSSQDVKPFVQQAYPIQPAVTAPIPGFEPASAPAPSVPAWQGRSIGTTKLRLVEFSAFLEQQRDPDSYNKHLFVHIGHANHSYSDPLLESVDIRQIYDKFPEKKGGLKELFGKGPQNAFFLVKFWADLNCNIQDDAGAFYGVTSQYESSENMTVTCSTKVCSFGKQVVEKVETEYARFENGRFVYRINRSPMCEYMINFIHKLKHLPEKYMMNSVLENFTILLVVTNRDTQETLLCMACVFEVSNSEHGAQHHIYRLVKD
Method: (§3) Diluting the tested compound in gradient to 5 uL with buffer (25 mM HEPES, 150 mM NaCl, pH6.5), then adding 5 μL of the newly prepared 0.45 uM recombinant TEAD protein solution, and incubating at room temperature for 10 minutes. […] After shaking the plate at room temperature for 1 hour, measuring the fluorescence intensity (Ex/Em: 380/470 nm).

[6] = biological target: recombinant TEAD4 protein central pocket (Homo sapiens (Human), UniProt Q15561); assay: Competitive thiol binding assay (CPM assay), TEAD4; conditions: 150 nM recombinant TEAD protein, 150 nM CPM
Sequence of recombinant TEAD4 protein central pocket (Q15561 whole entry): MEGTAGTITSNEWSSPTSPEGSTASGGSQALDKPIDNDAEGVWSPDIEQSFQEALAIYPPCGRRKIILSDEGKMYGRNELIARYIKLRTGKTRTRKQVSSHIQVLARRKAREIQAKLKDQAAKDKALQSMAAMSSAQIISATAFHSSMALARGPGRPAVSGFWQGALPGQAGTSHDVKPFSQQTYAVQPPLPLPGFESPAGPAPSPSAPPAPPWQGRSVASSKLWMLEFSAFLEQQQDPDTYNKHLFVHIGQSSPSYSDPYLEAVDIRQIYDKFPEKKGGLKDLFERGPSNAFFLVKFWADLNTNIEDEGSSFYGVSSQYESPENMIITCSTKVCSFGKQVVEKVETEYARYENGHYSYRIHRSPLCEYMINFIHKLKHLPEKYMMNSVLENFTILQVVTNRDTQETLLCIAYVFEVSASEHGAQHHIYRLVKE
Method: as §3

[7] = Permeability test on Caco2 cells; type: in vitro ADME; conditions: human, Caco-2, AP→BL
Method: (§4) After resuscitation, the Caco-2 cells are transferred to a conventional culture dish and cultured in a high-glucose DMEM medium (containing 10% FBS) at 37° C. and 5% CO2 in an incubator. When the cells cover 80% to 95% of the bottom of the dish, they are digested with trypsin containing 0.25% EDTA to disperse them into a single cell suspension, and the cell concentration is determined using a cell counter, after that, the concentration of the cell suspension is adjusted to 2 to 2.5×10^5/mL with fresh culture medium and inoculated into a Transwell polycarbonate membrane 12-well plate, the fresh culture medium is replaced every two days in the first two weeks and once a day in the last week, the culture is continued for 19 to 21 days to obtain a fully differentiated single cell layer.

Caco-2 cells = assay: Permeability test on Caco2 cells; type: in vitro ADME; conditions: for Papp / Receiving chamber concentration Area ratio/OD: single replicate; for Penetration Type: Caco2 cell model
Method: as §4

[8] = In vitro liver microsome stability, mouse; type: in vitro ADME; conditions: for metabolic stability: mouse liver microsome environment; for mouse half-life: mouse liver microsomes
Method: (§5) Testosterone is selected as the positive reference compound. The specific method is as follows:
(§6) Preparing 0.1MK3 PO4 (pH 7.4) buffer and 3×NADPH stock solution (6 mM, 5 mg/mL), and preheating in a 37° C. water bath; preparing spiking solution of tested compound and control compound: adding 5 μL compound stock solution (10 mM) to 95 μL acetonitrile; preparing 1.5 μM spiking solution in microsomes (0.75 mg/mL): add 1.5 μL spiking solution and 18.75 μL liver microsome solution (20 mg/mL) to 479.75 μL K3PO4 buffer; taking 30 μL spiking solution in microsomes and adding it to the multiwell plate, and incubating at 37° C. for 5 min; adding 15 μL of NADPH stock solution to each well, starting to react, and timing; adding 150 μL of acetonitrile solution containing IS at 0 min, 5 min, 15 min, 30 min, 45 min and 60 min respectively to terminate the reaction; after 10 min of oscillation, centrifuging the reaction at 6000 rpm for 15 min; taking 80 μL of supernatant from each well for LC/MS detection and calculating Ti/2.
(§7) Liver microsomes of mice, rats, dogs, and human used in the experiment are purchased from Xenotech.

[9] = In vitro liver microsome stability, human; type: in vitro ADME; conditions: for metabolic stability: human liver microsome environment; for human half-life: human liver microsomes
Method: as §5, §6, §7

TEAD family proteins = assay: Thermal shift assay, summary over all TEAD subtypes; type: binding; conditions: summary of Table 1
Method: as §1, §2

[10] = Mouse plasma pharmacokinetic test; type: in vivo, CD-1 mice
Excerpt: In this example, different compounds are used to perform a mouse pharmacokinetic experiment, and the specific steps are as follows: Animal information: CD-1 mice, male, about 20 g, purchase from Beijing Weitonglihua Experimental Animal Technology Co., Ltd.
Animal dietary status: Animals are not fasted before administration and allowed to drink water freely.
Compound preparation method: for intragastric administration (IG)(G1 group), preparing with 0.5% CMC-Na, and for intravenous injection(IV) (G2 group), preparing 5% DMSO+30% PEG400+65% water. […]
Sampling time points of G1 group: 8 points in total, namely 10 min, 30 min, 1 h, 2 h, 4 h, 6 h, 8 h and 24 h after administration, among them, animals G1M01-G1M03 are sampled at 3 time points, namely 10 min, 1 h and 6 h; animals G1M04-G1M06 are sampled at 3 time points, namely 30 min, 2 h and 8 h; animals G1M07-G1M09 are sampled at 2 time points, namely 4 h and 24 h.
Sampling time points of G2 group: 9 points in total, namely 5 min, 10 min, 30 min, 1 h, 2 h, 4 h, 6 h, 8 h, 24 h after administration. It is recommended that animals G2M01-G2M03 are sampled at 3 time points, namely 5 min, 1 h, and 6 h; animals G2M04-G2M06 are sampled at 3 time points, namely 10 min, 2 h, and 8 h; animals G2M07-G2M09 are sampled at 3 time points, namely 30 min, 4 h, and 24 h.
Sample collection: On the day of the experiment, collecting approximately 0.1 mL of whole blood samples at each preset time point and placing in EDTA-K2 anticoagulant tubes.
Sample processing: Within 30 minutes after whole blood sample collection, centrifuging at 4° C., 12,000 rpm for 5 minutes to separate plasma, collecting the upper plasma sample into a sample tube, and freezing the plasma sample in a −10˜−30° C. refrigerator within 30 minutes and transferring to a −60˜−90° C. refrigerator within 24 hours.
Sample testing and data processing: LC/MS/MS testing, WinNonlin for fitting and pharmacokinetic parameter calculation.

[11] = single replicate, read-out: Papp

SMILES: CP(C)(=O)c1ccc(Nc2ccc(C(F)(F)F)cc2)c(-c2nccc(OC3CCOC3)n2)c1 (stereo not drawn) [Compound 18]
- Δ T m (TEAD1) [1]: ++++
- Δ T m (TEAD2) [2]: +
- Δ T m (TEAD3) [3]: +
- Δ T m (TEAD4) [4]: +++
- IC50 [5]: 0.16 µM
- IC50 [6]: 0.21 µM

SMILES: COCCc1ccc(OCC(O)CNC(C)C)cc1 (stereo not drawn) [Metoprolol]
- Papp at 120 min [7, 11]: 17.8 ×10⁻⁶ cm/s
- Papp (Caco-2 cells; AP→BL): 18.4 10^−6 cm/s
- Penetration Type (Caco-2 cells): High

SMILES: Cn1cnc(-c2cc(P3(=O)CCNCC3)ccc2Nc2ccc(C(F)(F)F)cc2)c1 [Compound 1]
- Δ T m (TEAD1) [1]: +++
- Δ T m (TEAD2) [2]: +++
- Δ T m (TEAD3) [3]: ++
- Δ T m (TEAD4) [4]: +++
- metabolic stability [8]: good metabolic stabilities
- mouse half-life [8]: 1.56 h
- metabolic stability [9]: good metabolic stabilities
- human half-life [9]: 5.98 h

SMILES: O=C1OC2(c3ccc(O)cc3Oc3cc(O)ccc32)c2ccccc21 [fluorescein]
- Papp at 120 min ([7]; n = 2, read-out: Papp average value): 0.349 ×10⁻⁶ cm/s
- Papp at 120 min [7, 11]: 0.364 ×10⁻⁶ cm/s
- Papp (Caco-2 cells; AP→BL): 0.334 10^−6 cm/s
- Receiving chamber concentration Area ratio/OD (Caco-2 cells; AP→BL): 4.40E+07 and 4.05E+07
- Penetration Type (Caco-2 cells): Zero

SMILES: CP(C)(=O)c1ccc(NC2CCC(F)(F)CC2)c(-c2nccc(OC3COC3)n2)c1 [Compound 30]
- Δ T m (TEAD1) [1]: +++
- Δ T m (TEAD2) [2]: +
- Δ T m (TEAD3) [3]: +
- Δ T m (TEAD4) [4]: ++
- IC50 [5]: 0.69 µM
- IC50 [6]: 0.81 µM

SMILES: CCP(=O)(CC)c1ccc(Nc2ccc(C(F)(F)F)cc2)c(-c2nccc(OC3COC3)n2)c1 [Compound 66]
- Δ T m (TEAD1) [1]: ++++
- Δ T m (TEAD2) [2]: +
- Δ T m (TEAD3) [3]: +
- Δ T m (TEAD4) [4]: ++++
- IC50 [5]: 0.14 µM

SMILES: CP(C)(=O)c1ccc(Nc2ccc(C(F)(F)F)cc2)c(-c2nccc(N3CC[C@H](O)C3)n2)c1 [Compound 9]
- Δ T m (TEAD1) [1]: +++
- Δ T m (TEAD2) [2]: ++
- Δ T m (TEAD3) [3]: +
- Δ T m (TEAD4) [4]: +++
- mouse half-life [8]: 1.43 h
- human half-life [9]: 0.488 h

SMILES: CP(C)(=O)c1cc(-c2nccc(OC3COC3)n2)c(Nc2ccc(C(F)(F)F)cc2)s1 [Compound 24]
- Δ T m (TEAD1) [1]: ++++
- Δ T m (TEAD2) [2]: ++
- Δ T m (TEAD3) [3]: +
- Δ T m (TEAD4) [4]: ++++
- IC50 [5]: 0.18 µM
- IC50 [6]: 0.29 µM

SMILES: CP(C)(=O)c1ccc(Nc2ccc(S(F)(F)(F)(F)F)cc2)c(-c2nccc(OC3COC3)n2)c1 [Compound 74]
- Δ T m (TEAD1) [1]: ++++
- Δ T m (TEAD2) [2]: +
- Δ T m (TEAD3) [3]: +
- Δ T m (TEAD4) [4]: ++++
- IC50 [5]: 0.19 µM
- IC50 [6]: 0.21 µM

SMILES: CNC(=C[N+](=O)[O-])NCCSCc1ccc(CN(C)C)o1 [ranitidine]
- Papp average value (Caco-2 cells; AP→BL, n = 2): 1.84 10^−6 cm/s
- Papp (Caco-2 cells; AP→BL): 1.99 10^−6 cm/s and 1.69 10^−6 cm/s
- Receiving chamber concentration Area ratio/OD (Caco-2 cells; AP→BL): 3.32 and 2.82
- Penetration Type (Caco-2 cells): Medium

SMILES: CP(C)(=O)c1ccc(Nc2ccc(C(F)(F)F)cc2)c(-c2nc(OC3COC3)cs2)c1 [Compound 7]
- Δ T m (TEAD1) [1]: ++++
- Δ T m (TEAD2) [2]: ++
- Δ T m (TEAD3) [3]: ++
- Δ T m (TEAD4) [4]: ++++
- binding ability to each subtype of TEAD family proteins (TEAD family proteins): good binding abilities
- IC50 [5]: 0.17 µM
- IC50 [6]: 0.25 µM

SMILES: Cn1cnc(-c2cc(P(C)(C)=O)ccc2Nc2ccc(C(F)(F)F)cc2)c1 [Compound 64]
- Δ T m (TEAD1) [1]: ++++
- binding ability to each subtype of TEAD family proteins (TEAD family proteins): good binding abilities
- metabolic stability [8]: good metabolic stabilities
- mouse half-life [8]: > 3.1 h
- metabolic stability [9]: good metabolic stabilities
- human half-life [9]: > 3.1 h
- F % ([10]; CD-1 mice, IG 10 mg/kg vs IV 1 mg/kg): 87.1%
- AUC0-t ([10]; CD-1 mice, single IG 10 mg/kg): 57458 ng·h/mL
- AUC0-∞ ([10]; CD-1 mice, single IG 10 mg/kg): 69572 ng·h/mL
- Cmax ([10]; CD-1 mice, single IG 10 mg/kg): 4063 ng/mL
- MRT0-t ([10]; CD-1 mice, single IG 10 mg/kg): 8.16 h
- MRT0-∞ ([10]; CD-1 mice, single IG 10 mg/kg): 13.3 h
- Tmax ([10]; CD-1 mice, single IG 10 mg/kg): 2.67 h
- t1/2 ([10]; CD-1 mice, single IG 10 mg/kg): 9.43 h
- AUC0-t ([10]; CD-1 mice, single IV 1 mg/kg): 6596 ng·h/mL
- AUC0-∞ ([10]; CD-1 mice, single IV 1 mg/kg): 7208 ng·h/mL
- CL ([10]; CD-1 mice, single IV 1 mg/kg): 2.33 mL/min/kg
- MRT0-t ([10]; CD-1 mice, single IV 1 mg/kg): 5.85 h
- MRT0-∞ ([10]; CD-1 mice, single IV 1 mg/kg): 8.26 h
- Vss ([10]; CD-1 mice, single IV 1 mg/kg): 1.15 L/kg
- t1/2 ([10]; CD-1 mice, single IV 1 mg/kg): 6.98 h
- pharmacokinetic properties in mice ([10]; mice): good pharmacokinetic properties
